Experimental data taken from patent US10040790B2, “Bicyclic heterocycles as FGFR inhibitors” (Incyte Corporation, priority 2013, dated 2018).

Assays:
Type in all cases: biochemical
FGFR1 = FGFR1 (Homo sapiens (Human), UniProt P11362); assay: FGFR Enzymatic Assay (FRET peptide phosphorylation), FGFR1; settings: ATP 210 μM, enzyme 0.02 nM
Protocol: (§1) The inhibitor potency of the exemplified compounds was measured in an enzyme assay that measures peptide phosphorylation using FRET measurements to detect product formation. Inhibitors were serially diluted in DMSO and a volume of 0.5 μL was transferred to the wells of a 384-well plate. For FGFR3, a 10 μL volume of FGFR3 enzyme (Millipore) diluted in assay buffer (50 mM HEPES, 10 mM MgCl2, 1 mM EGTA, 0.01% Tween-20, 5 mM DTT, pH 7.5) was added to the plate and pre-incubated for 5-10 minutes. Appropriate controls (enzyme blank and enzyme with no inhibitor) were included on the plate. The assay was initiated by the addition of a 10 μL solution containing biotinylated EQEDEPEGDYFEWLE peptide substrate (SEQ ID NO: 1) and ATP (final concentrations of 500 nM and 140 μM respectively) in assay buffer to the wells. The plate was incubated at 25° C. for 1 hr. The reactions were ended with the addition of 10 μL/well of quench solution (50 mM Tris, 150 mM NaCl, 0.5 mg/mL BSA, pH 7.8; 30 mM EDTA with Perkin Elmer Lance Reagents at 3.75 nM Eu-antibody PY20 and 180 nM APC-Streptavidin). The plate was allowed to equilibrate for ˜1 hr before scanning the wells on a PheraStar plate reader (BMG Labtech).
(§2) FGFR1 and FGFR2 were measured under equivalent conditions with the following changes in enzyme and ATP concentrations: FGFR1, 0.02 nM and 210 μM, respectively and FGFR2, 0.01 nM and 100 μM, respectively. The enzymes were purchased from Millipore or Invitrogen.
(§3) GraphPad prism3 was used to analyze the data. The IC50 values were derived by fitting the data to the equation for a sigmoidal dose-response with a variable slope. Y=Bottom+(Top−Bottom)/(1+10^((Log IC50−X)*HillSlope)) where X is the logarithm of concentration and Y is the response.

FGFR2 = FGFR2 (Homo sapiens (Human), UniProt P21802); assay: FGFR Enzymatic Assay (FRET peptide phosphorylation), FGFR2; settings: ATP 100 μM, enzyme 0.01 nM
Protocol: as §1, §2, §3

FGFR3 = FGFR3 (Homo sapiens (Human), UniProt P22607); assay: FGFR Enzymatic Assay (FRET peptide phosphorylation), FGFR3; settings: ATP 140 μM
Protocol: as §1, §3

Measured: IC50

Sequence of FGFR2 (P21802 22-821): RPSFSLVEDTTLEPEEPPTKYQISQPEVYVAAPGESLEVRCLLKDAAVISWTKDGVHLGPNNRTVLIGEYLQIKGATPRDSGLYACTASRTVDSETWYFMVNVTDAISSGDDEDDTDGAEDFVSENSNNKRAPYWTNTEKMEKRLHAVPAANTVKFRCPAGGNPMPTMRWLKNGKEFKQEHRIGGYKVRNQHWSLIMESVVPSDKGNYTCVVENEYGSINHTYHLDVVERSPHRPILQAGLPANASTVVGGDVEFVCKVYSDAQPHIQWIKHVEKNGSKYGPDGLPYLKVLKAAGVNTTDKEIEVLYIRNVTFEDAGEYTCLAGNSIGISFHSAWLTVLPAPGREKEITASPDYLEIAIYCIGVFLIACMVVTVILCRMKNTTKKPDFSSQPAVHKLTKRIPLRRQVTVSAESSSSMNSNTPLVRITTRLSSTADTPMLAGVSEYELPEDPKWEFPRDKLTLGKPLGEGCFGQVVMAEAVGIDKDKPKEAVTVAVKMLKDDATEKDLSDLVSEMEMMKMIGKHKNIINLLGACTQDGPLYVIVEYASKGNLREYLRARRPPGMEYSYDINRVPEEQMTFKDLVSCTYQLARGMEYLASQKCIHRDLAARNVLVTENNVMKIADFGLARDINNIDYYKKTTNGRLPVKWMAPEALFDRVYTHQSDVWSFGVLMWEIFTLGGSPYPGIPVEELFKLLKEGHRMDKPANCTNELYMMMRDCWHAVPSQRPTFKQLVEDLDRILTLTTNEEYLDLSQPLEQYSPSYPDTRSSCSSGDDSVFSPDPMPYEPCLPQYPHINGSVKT
Sequence of FGFR3 (P22607 23-806): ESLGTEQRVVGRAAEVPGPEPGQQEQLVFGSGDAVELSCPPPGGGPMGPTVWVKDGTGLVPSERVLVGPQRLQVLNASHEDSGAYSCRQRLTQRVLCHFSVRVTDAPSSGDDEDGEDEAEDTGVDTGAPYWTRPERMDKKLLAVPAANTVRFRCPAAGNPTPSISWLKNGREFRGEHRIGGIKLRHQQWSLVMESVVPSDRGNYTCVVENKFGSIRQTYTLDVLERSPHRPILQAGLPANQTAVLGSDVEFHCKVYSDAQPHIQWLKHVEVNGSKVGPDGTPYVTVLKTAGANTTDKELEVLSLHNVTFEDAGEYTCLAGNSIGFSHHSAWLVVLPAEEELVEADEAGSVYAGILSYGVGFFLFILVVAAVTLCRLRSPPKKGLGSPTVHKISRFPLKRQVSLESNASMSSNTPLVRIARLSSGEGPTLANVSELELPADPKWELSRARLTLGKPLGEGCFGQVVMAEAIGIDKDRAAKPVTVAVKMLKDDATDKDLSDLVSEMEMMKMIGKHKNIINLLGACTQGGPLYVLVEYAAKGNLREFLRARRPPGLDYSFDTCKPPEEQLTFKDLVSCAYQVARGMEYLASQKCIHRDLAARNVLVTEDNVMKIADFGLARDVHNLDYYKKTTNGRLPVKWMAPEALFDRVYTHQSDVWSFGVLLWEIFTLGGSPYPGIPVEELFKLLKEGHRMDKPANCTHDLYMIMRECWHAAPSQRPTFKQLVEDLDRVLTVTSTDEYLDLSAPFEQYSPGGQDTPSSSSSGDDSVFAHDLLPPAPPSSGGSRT
Sequence of FGFR1 (P11362 22-822): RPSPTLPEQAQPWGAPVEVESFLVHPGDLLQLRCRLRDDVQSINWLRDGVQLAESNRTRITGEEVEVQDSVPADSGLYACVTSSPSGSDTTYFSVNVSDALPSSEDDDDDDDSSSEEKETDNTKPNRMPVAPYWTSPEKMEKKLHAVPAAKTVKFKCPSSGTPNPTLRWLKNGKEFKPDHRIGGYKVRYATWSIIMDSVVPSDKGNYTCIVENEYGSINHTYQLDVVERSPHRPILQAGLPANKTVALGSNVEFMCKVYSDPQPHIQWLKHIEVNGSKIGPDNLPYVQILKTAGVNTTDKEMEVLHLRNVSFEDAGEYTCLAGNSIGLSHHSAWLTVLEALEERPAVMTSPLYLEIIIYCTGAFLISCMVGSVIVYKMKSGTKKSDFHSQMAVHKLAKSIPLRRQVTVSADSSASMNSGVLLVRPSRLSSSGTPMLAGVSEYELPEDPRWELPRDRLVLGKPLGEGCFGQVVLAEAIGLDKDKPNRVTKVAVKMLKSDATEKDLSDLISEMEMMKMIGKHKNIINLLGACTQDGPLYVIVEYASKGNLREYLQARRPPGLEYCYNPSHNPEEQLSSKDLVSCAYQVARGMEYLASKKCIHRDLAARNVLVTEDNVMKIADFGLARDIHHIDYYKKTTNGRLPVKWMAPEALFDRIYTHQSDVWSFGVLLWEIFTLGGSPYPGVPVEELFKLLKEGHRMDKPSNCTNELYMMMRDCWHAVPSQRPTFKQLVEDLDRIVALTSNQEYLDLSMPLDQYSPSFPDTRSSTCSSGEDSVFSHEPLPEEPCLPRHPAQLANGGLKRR

COc1cc(OC)c(F)c(N2Cc3cnc(NCc4cnn(C)c4)cc3C3(CC3)C2=O)c1F [Example 37, 2′-(2,6-difluoro-3,5-dimethoxyphenyl)-6′-((1-methyl-1H-pyrazol-4-yl)methylamino)-1′H-spiro[cyclopropane-1,4′-[2,7]naphthyridin]-3′(2′H)-one]
< 100 nM: all assays above

COc1cc(OC)c(F)c(N2Cc3cnc(N)c(C#N)c3N(Cc3cnn(C)c3)C2=O)c1F [Example 51, 7-amino-3-(2,6-difluoro-3,5-dimethoxyphenyl)-1-[(1-methyl-1H-pyrazol-4-yl)methyl]-2-oxo-1,2,3,4-tetrahydropyrido[4,3-d]pyrimidine-8-carbonitrile]
< 100 nM: all assays above

COCCOc1c(N)ncc2c1N(C)C(=O)N(c1c(F)c(OC)cc(OC)c1F)C2 [Example 5, 7-amino-3-(2,6-difluoro-3,5-dimethoxyphenyl)-8-(2-methoxyethoxy)-1-methyl-3,4-dihydro-pyrido[4,3-d]pyrimidin-2(1H)-one]
< 100 nM: all assays above

COc1cc(OC)c(F)c(N2Cc3cnc(N)cc3C(C)(C)C2=O)c1F [Example 22, 6-amino-2-(2,6-difluoro-3,5-dimethoxyphenyl)-4,4-dimethyl-1,2-dihydro-2,7-naphthyridin-3(4H)-one]
< 100 nM: all assays above

COc1cc(OC)c(F)c(N2Cc3cnc(Nc4cccc(F)c4)cc3C3(CC3)C2=O)c1F [Example 33, 2′-(2,6-difluoro-3,5-dimethoxyphenyl)-6′-(3-fluorophenylamino)-1′H-spiro[cyclopropane-1,4′-[2,7]naphthyridin]-3′(2′H)-one]
< 100 nM: all assays above

COc1cc(OC)c(F)c(N2Cc3cnc(NCCN4CCN(C)CC4)cc3C3(CC3)C2=O)c1F [Example 30, 2′-(2,6-difluoro-3,5-dimethoxyphenyl)-6′-(2-(4-methylpiperazin-1-yl)ethylamino)-1′H-spiro[cyclopropane-1,4′-[2,7]naphthyridin]-3′(2′H)-one]
< 100 nM: all assays above

COc1cc(OC)c(F)c(N2Cc3cnc(NC4CCOCC4)cc3C3(CC3)C2=O)c1F [Example 26, 2′-(2,6-difluoro-3,5-dimethoxyphenyl)-6′-(tetrahydro-2H-pyran-4-ylamino)-1′,2′-dihydro-3′H-spiro[cyclopropane-1,4′-[2,7]naphthyridin]-3′-one]
< 100 nM: all assays above

CCn1cc(-c2c(N)ncc3c2N(C)C(=O)N(c2c(F)c(OC)cc(OC)c2F)C3)cn1 [Example 9, 7-amino-3-(2,6-difluoro-3,5-dimethoxyphenyl)-1-methyl-8-(1-ethyl-1H-pyrazol-4-yl)-3,4-dihydropyrido[4,3-d]pyrimidin-2(1H)-one]
< 100 nM: all assays above

COc1cc(OC)c(F)c(N2Cc3cnc(N[C@H](C)c4ccccc4)cc3C3(CC3)C2=O)c1F [Example 38, (R)-2′-(2,6-difluoro-3,5-dimethoxyphenyl)-6′-(1-phenylethylamino)-1′H-spiro[cyclopropane-1,4′-[2,7]naphthyridin]-3′(2′H)-one]
< 100 nM: all assays above

COc1cc(OC)c(F)c(N2Cc3cnc(N)c(-c4cnn(C)c4)c3N(C)C2=O)c1F [Example 8, 7-amino-3-(2,6-difluoro-3,5-dimethoxyphenyl)-1-methyl-8-(1-methyl-1H-pyrazol-4-yl)-3,4-dihydropyrido[4,3-d]pyrimidin-2(1H)-one]
< 100 nM: all assays above

COc1cc(OC)c(F)c(N2Cc3cnc(N)cc3C3(CC3)C2=O)c1F [Example 24, 6′-amino-2′-(2,6-difluoro-3,5-dimethoxyphenyl)-1′H-spiro[cyclopropane-1,4′-[2,7]naphthyridin]-3′(2′H)-one]
< 100 nM: all assays above

COc1cc(OC)c(F)c(N2Cc3cnc(N)c(C#N)c3N(C3CCCC3)C2=O)c1F [Example 50, 7-amino-1-cyclopentyl-3-(2,6-difluoro-3,5-dimethoxyphenyl)-2-oxo-1,2,3,4-tetrahydropyrido[4,3-d]pyrimidine-8-carbonitrile]
< 100 nM: all assays above

COc1cc(OC)c(F)c(N2Cc3cnc(NCc4ccccn4)cc3C3(CC3)C2=O)c1F [Example 28, 2′-(2,6-difluoro-3,5-dimethoxyphenyl)-6′-(pyridin-2-ylmethylamino)-1′H-spiro[cyclopropane-1,4′-[2,7]naphthyridin]-3′(2′H)-one]
< 100 nM: all assays above

COc1cc(OC)c(F)c(N2Cc3cnc(N)c(OCCN4CCN(C)CC4)c3N(C)C2=O)c1F [Example 6, 7-amino-3-(2,6-difluoro-3,5-dimethoxyphenyl)-1-methyl-8-[2-(4-methylpiperazin-1-yl)ethoxy]-3,4-dihydropyrido[4,3-d]pyrimidin-2(1H)-one]
< 100 nM: all assays above

COc1cc(OC)c(F)c(N2Cc3cnc(NC4CC4)cc3C3(CC3)C2=O)c1F [Example 41, 6′-(cyclopropylamino)-2′-(2,6-difluoro-3,5-dimethoxyphenyl)-1′H-spiro[cyclopropane-1,4′-[2,7]naphthyridin]-3′(2′H)-one]
< 100 nM: all assays above

COc1cc(OC)c(F)c(N2Cc3cnc(N)c(C#N)c3N(C)C2=O)c1F [Example 3, 7-amino-3-(2,6-difluoro-3,5-dimethoxyphenyl)-1-methyl-2-oxo-1,2,3,4-tetrahydropyrido-[4,3-d]pyrimidine-8-carbonitrile]
< 100 nM: all assays above

COc1cc(OC)c(F)c(N2Cc3cnc(N)c(C)c3N(Cc3cnn(C)c3)C2=O)c1F [Example 47, 7-amino-3-(2,6-difluoro-3,5-dimethoxyphenyl)-8-methyl-1-[(1-methyl-1H-pyrazol-4-yl)methyl]-3,4-dihydropyrido[4,3-d]pyrimidin-2(1H)-one]
< 100 nM: all assays above

COc1cc(OC)c(F)c(N2Cc3cnc(Nc4cccnc4)cc3C3(CC3)C2=O)c1F [Example 32, 2′-(2,6-difluoro-3,5-dimethoxyphenyl)-6′-(pyridin-3-ylamino)-1′H-spiro[cyclopropane-1,4′-[2,7]naphthyridin]-3′(2′H)-one]
< 100 nM: all assays above

CCc1c(N)ncc2c1N(C)C(=O)N(c1c(F)c(OC)cc(OC)c1F)C2 [Example 2, 7-amino-3-(2,6-difluoro-3,5-dimethoxyphenyl)-8-ethyl-1-methyl-3,4-dihydropyrido[4,3-d]pyrimidin-2(1H)-one]
< 100 nM: all assays above

COc1cc(OC)c(F)c(N2Cc3cnc(N)c(Cc4ccccc4)c3N(C)C2=O)c1F [Example 20, 7-amino-8-benzyl-3-(2,6-difluoro-3,5-dimethoxyphenyl)-1-methyl-3,4-dihydropyrido[4,3-d]pyrimidin-2(1H)-one]
< 100 nM: all assays above

COc1cc(OC)c(F)c(N2Cc3cnc(N)c(C4=CCOCC4)c3N(C)C2=O)c1F [Example 21, 7-amino-3-(2,6-difluoro-3,5-dimethoxyphenyl)-8-(3,6-dihydro-2H-pyran-4-yl)-1-methyl-3,4-dihydropyrido[4,3-d]pyrimidin-2(1H)-one]
< 100 nM: all assays above
